We go through 6 compounds from ChEMBL document CHEMBL2157932, “Synthesis and pharmacological evaluation of carbamic acid 1-phenyl-3-(4-phenyl-piperazine-1-yl)-propyl ester derivatives as new analgesic agents” (Bioorg Med Chem Lett, 2012).

The subject of data set [1] is Mus musculus. Put plainly: Antinociceptive activity in po dosed mouse by hot plate test. Format: functional. (In general: In hot-plate and tail-flick tests a longer latency is read as antinociception.)
Data set [2] concerns Mus musculus. Put plainly: Analgesic activity in po dosed mouse assessed as inhibition of acetic acid-induced writhing response administered 0.5 to 1 hr before acetic acid challenge. It is filed as functional. On the technique in general: An intraperitoneal irritant provokes the stretching counted in writhing tests.
The nature of data set [3]: AUCall in rat at 15 mg/kg, iv. It is filed as ADME, organism-based. Also noted: dose 15 mg/kg, route intravenous. As to conditions: plasma.
Data set [4] in a line: Oral bioavailability in rat at 15 mg/kg. It is filed as ADME, organism-based. As to conditions: in vivo.
The subject of data set [5] is Mus musculus. Put plainly: Inhibition of 5-hydroxytryptophan-induced head twitches in mouse at 3 mg/kg, ip. It is filed as functional. As to conditions: route intraperitoneal.
Data set [6] in a line: Binding affinity to prostaglandin synthetase at 10 uM.
Data set [7] has as its system Mus musculus. The data set is described as follows: Analgesic activity in ip dosed mouse assessed as inhibition of acetic acid-induced writhing response administered 0.5 to 1 hr before acetic acid challenge. Format: functional.
The target in data set [8] is 5-hydroxytryptamine receptor 2B (Homo sapiens, UniProt P41595). The data set is described as follows: Binding affinity to 5HT2B receptor.
Chain of 5-hydroxytryptamine receptor 2B (P41595 whole entry): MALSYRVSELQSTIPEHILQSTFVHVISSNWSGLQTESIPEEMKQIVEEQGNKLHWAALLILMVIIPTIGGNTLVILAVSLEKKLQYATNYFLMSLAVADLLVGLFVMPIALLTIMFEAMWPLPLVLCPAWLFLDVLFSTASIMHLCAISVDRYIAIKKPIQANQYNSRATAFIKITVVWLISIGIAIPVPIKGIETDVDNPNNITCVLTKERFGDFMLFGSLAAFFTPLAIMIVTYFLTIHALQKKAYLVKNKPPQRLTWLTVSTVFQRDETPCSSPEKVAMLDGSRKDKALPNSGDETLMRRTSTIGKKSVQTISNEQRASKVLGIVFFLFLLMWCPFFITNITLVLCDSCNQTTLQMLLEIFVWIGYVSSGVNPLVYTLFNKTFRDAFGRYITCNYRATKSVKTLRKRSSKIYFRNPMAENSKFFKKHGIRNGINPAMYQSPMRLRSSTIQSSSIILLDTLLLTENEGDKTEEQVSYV
Data set [9] in a line: Cmax in rat at 15 mg/kg, iv. Format: ADME, organism-based. Also noted: dose 15 mg/kg, route intravenous. As to conditions: in vivo.
Data set [10] can be described thus: Half life in human liver microsomes by LC/MS/MS. It is filed as ADME, Microsome.
Data set [11] has as its target Sodium-dependent noradrenaline transporter (Homo sapiens) (UniProt P23975). The data set is described as follows: Binding affinity to norepinephrine transporter at 10 uM.
Data set [12] in a line: Half life in rat at 15 mg/kg, iv. Format: ADME, organism-based. Also noted: dose 15 mg/kg, route intravenous. As to conditions: in vivo.
For data set [13], the system named is Rattus norvegicus. The data set is described as follows: Antiinflammatory activity in po dosed rat persistent inflammatory pain model assessed as inhibition of carrageenan-induced mechanical hyperalgesia. Format: functional.
The subject of data set [14] is Mus musculus. The data set is described as follows: Inhibition of DOI-induced head twitches in ip dosed mouse. Format: functional, organism-based.
Data set [15] deals with Mus musculus. Put plainly: Inhibition of DOI-induced head twitches in mouse at 1 mg/kg, ip. Format: functional. As to conditions: route intraperitoneal.
Data set [16] relates to Mus musculus. The data set is described as follows: Inhibition of DOI-induced head twitches in mouse at 3 mg/kg, ip. As to conditions: route intraperitoneal. It is filed as functional.
In data set [17] the test system is Mus musculus. The data set is described as follows: Neurotoxicity in mouse assessed as myoreflexation or sedation at 52.7 mg/kg, ip by rotarod test. Format: toxicity, organism-based. Also noted: dose 52.7 mg/kg, route intraperitoneal. As to conditions: in vivo. In general terms: The rotarod test checks motor coordination on a turning rod.
The subject of data set [18] is Mus musculus. Put plainly: Inhibition of DOI-induced head twitches in mouse at 0.3 mg/kg, ip. As to conditions: route intraperitoneal. Format: functional.
Data set [19] in a line: AUCall in rat at 15 mg/kg, po. It is filed as ADME, organism-based. Also noted: dose 15 mg/kg, route oral. As to conditions: plasma.
In data set [20] the target is Sigma non-opioid intracellular receptor 1 (Homo sapiens, UniProt Q99720). The data set is described as follows: Binding affinity to Sigma1.
Chain of Sigma non-opioid intracellular receptor 1 (Q99720 whole entry): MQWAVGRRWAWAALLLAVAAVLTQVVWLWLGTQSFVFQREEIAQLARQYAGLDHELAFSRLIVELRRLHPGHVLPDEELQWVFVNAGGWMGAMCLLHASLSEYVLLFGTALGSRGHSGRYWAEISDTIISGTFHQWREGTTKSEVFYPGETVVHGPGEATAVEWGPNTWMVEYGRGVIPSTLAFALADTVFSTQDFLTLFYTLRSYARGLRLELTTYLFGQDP
A short description of data set [21]: Cmax in rat at 15 mg/kg, po. Format: ADME, organism-based. Also noted: dose 15 mg/kg, route oral. As to conditions: in vivo.
Data set [22] concerns the target 5-hydroxytryptamine receptor 2A (Rattus norvegicus, UniProt P14842). Put plainly: Displacement of [3H]-ketanserin from 5HT2A receptor in rat cortical membrane. It is filed as cell membranes.
Data set [23] is described as follows: Half life in rat liver microsomes by LC/MS/MS. Format: ADME, Microsome.
The nature of data set [24]: Clearance in rat at 15 mg/kg, iv. Format: ADME, organism-based. Also noted: dose 15 mg/kg, route intravenous. As to conditions: in vivo.
The test system of data set [25] is Mus musculus. The data set is described as follows: Neurotoxicity in mouse assessed as myoreflexation or sedation at 139 mg/kg, po by rotarod test. Format: toxicity, organism-based. Also noted: dose 139 mg/kg, route oral. As to conditions: in vivo.
Data set [26] is described as follows: Binding affinity to opioid receptor at 10 uM.
The nature of data set [27]: Volume of distribution at steady state in rat at 15 mg/kg, iv. As to conditions: in vivo, read-out: Vdss. Also noted: dose 15 mg/kg, route intravenous. It is filed as ADME, organism-based.
Data set [28] is filed under the species Mus musculus. The data set is described as follows: Antinociceptive activity in mouse by hot plate test in presence of naloxone. Format: functional, organism-based.
Data set [29] deals with 5-hydroxytryptamine receptor 2A (Homo sapiens, UniProt P28223). Put plainly: Antagonist activity at 5HT2A receptor. Format: functional.
Chain of 5-hydroxytryptamine receptor 2A (Homo sapiens, UniProt P28223) (P28223 whole entry): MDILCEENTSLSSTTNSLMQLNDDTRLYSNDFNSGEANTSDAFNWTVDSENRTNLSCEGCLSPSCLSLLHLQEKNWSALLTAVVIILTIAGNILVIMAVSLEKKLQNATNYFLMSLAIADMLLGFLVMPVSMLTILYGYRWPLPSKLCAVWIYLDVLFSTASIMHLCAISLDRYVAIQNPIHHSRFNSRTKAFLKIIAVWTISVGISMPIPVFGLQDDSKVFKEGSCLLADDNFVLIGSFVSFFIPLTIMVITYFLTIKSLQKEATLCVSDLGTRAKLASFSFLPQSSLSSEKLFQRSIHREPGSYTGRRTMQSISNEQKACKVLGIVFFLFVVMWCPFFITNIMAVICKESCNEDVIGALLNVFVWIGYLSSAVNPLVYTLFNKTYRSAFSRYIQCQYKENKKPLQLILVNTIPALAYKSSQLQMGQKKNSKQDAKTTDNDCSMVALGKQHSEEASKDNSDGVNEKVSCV
Data set [30] has as its system Mus musculus. Put plainly: Inhibition of 5-hydroxytryptophan-induced head twitches in mouse at 10 mg/kg, ip. Format: functional. As to conditions: route intraperitoneal.
Data set [31] addresses T1, 5-hydroxytryptamine receptor 1A (Rattus norvegicus, UniProt P19327).
T1 sequence (P19327 whole entry): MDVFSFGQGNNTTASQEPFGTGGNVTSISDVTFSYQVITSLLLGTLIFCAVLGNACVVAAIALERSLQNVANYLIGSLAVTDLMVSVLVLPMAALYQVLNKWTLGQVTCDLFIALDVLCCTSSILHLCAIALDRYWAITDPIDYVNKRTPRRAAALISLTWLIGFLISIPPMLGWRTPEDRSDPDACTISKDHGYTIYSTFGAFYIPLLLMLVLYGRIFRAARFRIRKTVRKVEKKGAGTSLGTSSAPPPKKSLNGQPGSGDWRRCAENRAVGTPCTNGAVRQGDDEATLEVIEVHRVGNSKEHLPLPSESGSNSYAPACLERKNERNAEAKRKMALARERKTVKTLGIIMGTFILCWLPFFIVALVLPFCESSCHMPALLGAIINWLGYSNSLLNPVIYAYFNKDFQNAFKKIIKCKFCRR
Put plainly: Displacement of [3H]-8-OH-DPAT from 5HT1A receptor in rat hippocampus. It is filed as tissue-based.

A short description of data set [32]: Tmax in rat at 15 mg/kg, po. Format: ADME, organism-based. Also noted: dose 15 mg/kg, route oral. As to conditions: in vivo.
The nature of data set [33]: Half life in rat at 15 mg/kg, po. Format: ADME, organism-based. Also noted: dose 15 mg/kg, route oral. As to conditions: in vivo.
Data set [34] has as its system Mus musculus. Put plainly: Neurotoxicity in mouse at 60 mg/kg, ip by rotarod test. It is filed as toxicity, organism-based. Also noted: dose 60 mg/kg, route intraperitoneal. As to conditions: in vivo.
For data set [35], the system named is Rattus norvegicus. The data set is described as follows: Antiinflammatory activity in rat persistent inflammatory pain model assessed as inhibition of carrageenan-induced mechanical hyperalgesia at 100 mg/kg, po. Format: functional.
Data set [36] relates to Mus musculus. The data set is described as follows: Antinociceptive activity in mouse up to 100 mg/kg, ip by hot plate test. Also noted: dose 100 mg/kg. It is filed as functional, organism-based.
In data set [37] the test system is Mus musculus. Put plainly: Antinociceptive activity in late phase po dosed mouse by formalin test. Format: functional.
Data set [38] relates to Mus musculus. Put plainly: Antinociceptive activity in late phase ip dosed mouse by formalin test. Format: functional.
Data set [39] deals with Mus musculus. The data set is described as follows: Analgesic activity in mouse assessed as inhibition of acetic acid-induced writhing response at 10 mg/kg, po administered 0.5 to 1 hr before acetic acid challenge. Format: functional.
Data set [40] concerns Mus musculus. The data set is described as follows: Neurotoxicity in mouse at 20 mg/kg, ip by rotarod test. As to conditions: in vivo. Also noted: dose 20 mg/kg, route intraperitoneal. It is filed as toxicity, organism-based.
The test system of data set [41] is Mus musculus. The data set is described as follows: Analgesic activity in mouse assessed as inhibition of acetic acid-induced writhing response at 10 mg/kg, ip administered 0.5 to 1 hr before acetic acid challenge. It is filed as functional. As to conditions: route intraperitoneal.
In data set [42] the test system is Mus musculus. Put plainly: Neurotoxicity in mouse at 100 mg/kg, ip by rotarod test. Also noted: dose 100 mg/kg, route intraperitoneal. Format: toxicity, organism-based. As to conditions: in vivo.
Data set [43] relates to Mus musculus. Put plainly: Neurotoxicity in mouse at 30 mg/kg, ip by rotarod test. Format: toxicity, organism-based. As to conditions: in vivo. Also noted: dose 30 mg/kg, route intraperitoneal.

SMILES strings stand for the structures. Activity calls are given as the source filed them. The rule behind the calls is not given here.

Chain of Sodium-dependent noradrenaline transporter (Homo sapiens) (P23975 whole entry): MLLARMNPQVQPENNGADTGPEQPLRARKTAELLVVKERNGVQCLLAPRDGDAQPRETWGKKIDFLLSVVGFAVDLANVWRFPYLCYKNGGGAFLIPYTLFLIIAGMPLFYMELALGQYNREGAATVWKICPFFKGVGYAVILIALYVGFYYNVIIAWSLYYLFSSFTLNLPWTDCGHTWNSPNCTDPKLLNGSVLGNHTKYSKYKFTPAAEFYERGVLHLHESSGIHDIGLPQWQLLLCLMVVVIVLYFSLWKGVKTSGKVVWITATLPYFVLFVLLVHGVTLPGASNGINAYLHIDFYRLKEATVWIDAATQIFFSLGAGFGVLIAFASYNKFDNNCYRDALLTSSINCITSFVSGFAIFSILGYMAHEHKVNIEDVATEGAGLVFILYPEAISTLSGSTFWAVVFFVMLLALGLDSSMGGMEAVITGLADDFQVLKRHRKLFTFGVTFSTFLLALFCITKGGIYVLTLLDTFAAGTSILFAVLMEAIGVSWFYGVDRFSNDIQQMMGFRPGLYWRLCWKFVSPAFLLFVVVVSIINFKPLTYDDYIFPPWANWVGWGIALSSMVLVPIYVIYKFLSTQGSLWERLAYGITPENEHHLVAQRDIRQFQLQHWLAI
Chain of 5-hydroxytryptamine receptor 2A (Rattus norvegicus, UniProt P14842) (P14842 whole entry): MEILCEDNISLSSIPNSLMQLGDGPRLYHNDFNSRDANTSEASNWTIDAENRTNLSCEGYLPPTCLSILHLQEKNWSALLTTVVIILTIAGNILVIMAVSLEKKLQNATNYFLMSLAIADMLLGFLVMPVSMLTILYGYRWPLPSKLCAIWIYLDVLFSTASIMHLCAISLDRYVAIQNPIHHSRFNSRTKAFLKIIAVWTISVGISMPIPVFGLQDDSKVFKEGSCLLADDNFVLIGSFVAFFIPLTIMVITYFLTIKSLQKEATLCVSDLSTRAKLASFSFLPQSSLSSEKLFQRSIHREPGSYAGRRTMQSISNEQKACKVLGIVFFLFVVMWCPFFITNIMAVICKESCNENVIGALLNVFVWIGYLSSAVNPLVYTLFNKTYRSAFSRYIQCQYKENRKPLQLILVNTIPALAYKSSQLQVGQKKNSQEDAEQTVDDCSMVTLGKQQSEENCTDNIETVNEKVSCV

For the compound `COc1ccc(N2CCN(CC[C@@H](OC(N)=O)c3ccccc3)CC2)cc1`, the ED50 in the data set on Mus musculus [1] came to 2.86 mg/kg; with Mus musculus [2], 2.65 mg/kg; in the data set on Mus musculus [7], 0.94 mg/kg; with Rattus norvegicus [13] it was 0.68 mg/kg. The AUC in [3] turned out to be 17800 ng·h/mL; in data set [19] it was 13200 ng·h/mL. The bioavailability in [4] turned out to be 73.8%. Also, the inhibition in vivo at 3 mg/kg in the data set on Mus musculus [5] stood at 46.2%; in the data set with Mus musculus [16] it was 89.3%. Moreover, the inhibition entry in [6], in data set [11] and in data set [26] was “inactive” throughout. Besides, the Ki in data set [8] is 0.164 µM; in data set [20], 0.392 µM. In addition, the values for the Cmax in data set [9] and in [21] were 9950 ng/mL and 2200 ng/mL, respectively. Further, the half-life in data set [10] was 5.32 h; in data set [12] it was 1.8 h; in data set [23], 1.52 h; in data set [33], 2.6 h. The Activity result is “Dose-dependent effect” with Rattus norvegicus [13], “Non-toxic” in the data set on Mus musculus [17] and “Non-toxic” with Mus musculus [25]. In addition, the inhibition entry in the data set on Mus musculus [14] was “Dose-dependent effect”. The compound further came in with an inhibition in vivo at 1 mg/kg with Mus musculus [15] of 61.4%. This compound also had an inhibition in vivo at 0.3 mg/kg in the data set with Mus musculus [18] of 40%. Also, the values for the IC50 in [22], in [29] and in data set [31] were 5.77 µM, 5.8 µM and 8.82 µM, respectively. The compound also gave a clearance in data set [24] of 14.1 mL/min/kg. Besides, the Vd in data set [27] amounted to 1.77 L/kg. The outcome in the data set filed under Mus musculus [28] was Active. The compound further came in with an inhibition in vivo at 10 mg/kg with Mus musculus [30] of 100%. Moreover, in [32], the Tmax was 1.1 h.

As to `NC(=O)OC(CCN1CCN(c2cccc(Cl)c2)CC1)c1ccccc1` (stereo not drawn), the Activity result in the data set with Mus musculus [34] is listed as “Toxic”. Further, in the data set with Mus musculus [7], the median effective dose (ED50) stood at 0.57 mg/kg.

Turning to `O=C(c1ccccc1)c1ccc2n1CCC2C(=O)O` (stereo not drawn) [KETOROLAC], the inhibition in vivo at 100 mg/kg in the data set with Rattus norvegicus [35] stood at 36.4%. Also, the outcome in the data set on Mus musculus [36] was inactive. Moreover, the figures for the ED50 in the data set with Mus musculus [37] and in the data set with Mus musculus [38] were 17.9 mg/kg and 12.9 mg/kg, respectively.

Take `NC(=O)OC(CCN1CCN(c2ccc(F)cc2)CC1)c1ccccc1` (single isomer, unassigned): the inhibition in vivo at 10 mg/kg with Mus musculus [39] worked out at 88%. The ED50 with Mus musculus [7] worked out at 0.55 mg/kg. Moreover, in the data set on Mus musculus [40], the Activity entry is recorded as “Toxic”. In data set [31], this compound returned an IC50 of 10.5 µM.

With `NC(=O)OC(CCN1CCN(c2cccc(C(F)(F)F)c2)CC1)c1ccccc1` (stereo not drawn), the inhibition in vivo at 10 mg/kg in the data set on Mus musculus [41] is 14.6%. Further, the Activity result in the data set with Mus musculus [42] was “Toxic”.

For the compound `COc1ccccc1N1CCN(CCC(OC(N)=O)c2ccccc2)CC1` (single isomer, unassigned), the Activity result with Mus musculus [43] was “Toxic”. Also, the 50% effective dose (ED50) in the data set on Mus musculus [7] amounted to 0.67 mg/kg.

In general, ED50 refers to the dose that gives a 50% effect, or the effect in half of the subjects. By AUC is commonly meant the area under the concentration-time curve, a measure of exposure. As a reminder, the bioavailability is dose-corrected exposure relative to a reference, in per cent. High values mean good availability, low ones poor availability. A word on the inhibition in vivo: it is the drop in the measured response relative to a control, in per cent. For orientation: Ki means the dissociation constant of the complex between target and ligand, obtained from inhibition or displacement. Read a low Ki as a stronger hold on the target. A word on the Cmax: it is the maximum level reached in the sampled fluid or tissue. For orientation: half-life means the time in which the quantity being followed falls by half. Low values mean fast loss, high ones slow loss. As usually defined, the IC50 is the concentration that inhibits the measured activity by half. Usually clearance stands for the rate of elimination divided by the concentration. High values mean efficient removal, low ones inefficient removal. Broadly, the Tmax is the time at which the peak concentration occurs.
